Measured values reported in patent US10463594B2, “Cosmetic composition” (AJINOMOTO CO., INC., priority 2012, dated 2019).

Key:
hair [1] = test: Observation of hair damage (microscopic images ×400); details: 3 min after injection of sample
Method: In the test of the above-mentioned 1, the condition of the hair 3 min after injection of ion exchange water, protein-glutaminase solution, or 1% aqueous ammonia was observed.

hair [2] = test: Measurement of swelling degree of hair; details: 100×(D1−D0)/D0 of hair diameter
Method: Hair was immobilized in a concave part of a glass slide for biochemical count having a depth of the concave part of 200 μm (manufactured by NIPPON Genetics Co, Ltd.), a cover glass was placed on the glass slide to cover the concave part, the diameter of the hair was measured 10-14 times, and the mean thereof was calculated (D0). Thereafter, a sample was injected from the clearance between the cover glass and the glass slide, and left standing for 3 min or 5 min. The diameter of the hair was measured 10-14 times, and the mean was calculated (D1).
As the sample, ion exchange water, phosphate buffer (pH 6.2), protein-glutaminase solution (6.2 mg/mL, pH 6.2) and 1% aqueous ammonia (pH 11.8) were used. The swelling degree was calculated from the measured diameters of the hair (D0 and D1) according to the following formula. swelling degree (%)=100×(D1−D0)/D0

perm-treated hair = test: Quantification of free ammonia produced by reaction of protein-glutaminase with perm-treated hair; assay type: biochemical, human; details: 37° C., 1 hr
Method: Hair of Japanese women in their 20's was perm-treated and used as an experiment sample. The perm treatment included 1) immersing the hair in first perm liquid at 33° C. for 15 min and rinsing the first liquid with tap water at 35-40° C., and 2) immersing the hair in second perm liquid at 33° C. for 15 min and sufficiently rinsing same with tap water at 35-40° C. The continuous operation of 1) and 2) was repeated 4 times, and the hair was washed with 15% sodium laureth sulfate (EMAL E27C; Kao Corporation) and sufficiently rinsed with tap water at 35-40° C. The hair was immersed in a buffer, and treated with occasional stirring at room temperature for 10 min. The hair was combed out, hung while avoiding overlapped hair, and dried in a thermo-hygrostat room (23° C., 40% R.H.).
Using an Ammonia test kit (manufactured by Wako Pure Chemical Industries, Ltd.), the amount of free ammonia produced by reaction of protein-glutaminase with the above-mentioned perm-treated hair was quantified.
The protein-glutaminase solution (2 ml) at a concentration shown in Table 4 was added to a bundle of the above-mentioned perm-treated hair (0.25 g), and the amount of ammonia in a sample after reaction at 37° C. for 1 hr was measured. The amount of ammonia produced was shown as a value after subtraction of the amount of ammonia produced without addition of protein-glutaminase (Comparative Example 4).

[3] = test system: 3D cultured human skin model: TESTSKIN LSE-high; test: Permeability of FITC-labeled Gly-Gly-Gly to artificial cultured skin; assay type: cell-based; details: protein-glutaminase solution 4 mg/ml, 100 μl, 37° C. 30 min before peptide; measured after 2, 5, 20 hr; versus phosphate buffer (−)
Method: Using glycylglycylglycine (hereinafter indicated as “Gly-Gly-Gly”) (manufactured by PEPTIDE INSTITUTE, INC.) as a peptide to be evaluated for skin permeability, the permeability of Gly-Gly-Gly to commercially available artificial cultured skin (3D cultured human skin model: TESTSKIN LSE-high, manufactured by Toyobo Co., Ltd.) was evaluated. Gly-Gly-Gly was labeled with fluorescein by using fluorescein isothiocyanate (FITC-I, manufactured by Chemical-Dojin Co., Ltd.) to enable highly sensitive detection.
The cultured skin is cultured on a polycarbonate membrane on the bottom of a transwell, and set on a 6-well assay plate. […] The permeability was evaluated by measuring the amount of FITC-labeled Gly-Gly-Gly that permeated the cultured skin to move into phosphate buffer (−).
First, a protein-glutaminase solution (4 mg/ml, 100 μl) was added to the top of the cultured skin and incubated at 37° C. for 30 min, after which a FITC-labeled Gly-Gly-Gly sample (100 μl) was added to the top of the cultured skin. After 2, 5, and 20 hr, the amount of FITC-labeled Gly-Gly-Gly that permeated the cultured skin and moved into phosphate buffer (−) was measured. […] The fluorescence intensity was measured under the conditions of exciting wavelength 492 nm and fluorescence wavelength 520 nm. The fluorescence intensity was measured using platereader SpectraMaxM2 (manufactured by Molecular Devices, LLC.).

Molecule	condition of the hair (hair damage) (hair [1])	swelling degree (%) after 3 min (hair [2]; hair left standing in sample for 3 min) [%]	swelling degree (%) after 5 min (hair [2]; hair left standing in sample for 5 min) [%]	concentration of protein-glutaminase solution at which it reacted with perm-treated hair (perm-treated hair)	permeability of FITC-labeled Gly-Gly-Gly through cultured skin (fluorescence intensity) [3]
N [Comparative Example 3, 1% aqueous ammonia]	cuticles on the hair surface were lifted	11.1	11.3	–	–
protein-glutaminase: protein-glutaminase of Chryseobacterium proteolyticum, secretory-expressed in Corynebacterium glutamicum, activated by protease, purified, dissolved in phosphate buffer (protein, listed as Chryseobacterium proteolyticum) LASVIPDVATLNSLFNQIKNQSCGTSTASSPCITFRYPVDGCYARAHKMRQILMNNGYDCEKQFVYGNLKASTGTCCVAWSYHVAILVSYKNASGVTEKRIIDPSLFSSGPVTDTAWRNACVNTSCGSASVSSYANTAGNVYYRSPSNSYLYDNNLINTNCVLTKFSLLSGCSPSPAPDVSSCGF	–	–	–	not less than 0.01 mg/ml	improved permeability of peptide
